Measurements reported in paper PMC9288506, “Compounds activating VCP D1 ATPase enhance both autophagic and proteasomal neurotoxic protein clearance” (Nature Communications, 2022).

Experiments:
Assay in all cases: biochemical
Set-up in all cases: Thermo Fisher in vitro kinase panel, per cent inhibition of kinase activity at 10 uM
ACVR1B (ALK4) = ACVR1B (ALK4) (Homo sapiens, UniProt P36896)
Procedure: (§1) Kinase profiling of SMER28 and analogs SMER28 and analogs were tested at 10 µM in a panel of 123 kinases at ThermoFisher Scientific. Follow-up of selected kinases for SMER28 and analogs was also performed at ThermoFisher Scientific. Data are shown in Supplementary Data 2 and 3. […] An inhibition of PIK3C could induce autophagy, mediated by signaling through the AKT/mTOR axis[45].

AXL = AXL (Homo sapiens, UniProt P30530)
Procedure: as §1

BRAF = BRAF (Homo sapiens, UniProt P15056)
Procedure: as §1

CDK1/cyclin B = CDK1/cyclin B (Homo sapiens, UniProt P06493)
Procedure: as §1

DDR2 = DDR2 (Homo sapiens, UniProt Q16832)
Procedure: as §1

DNA-PK = target: T1, DNA-PK (Homo sapiens, UniProt P78527)
T1 construct: gene PRKDC
Procedure: as §1

FRAP1 (mTOR) = FRAP1 (mTOR) (Homo sapiens, UniProt P42345)
Procedure: as §1

FYN = FYN (Homo sapiens, UniProt P06241)
Procedure: as §1

MAP2K1 (MEK1) = MAP2K1 (MEK1) (Homo sapiens, UniProt Q02750)
Procedure: as §1

[1] = target: MAP3K7/MAP3K7IP1 (TAK1-TAB1) (Homo sapiens, UniProt O43318)
Procedure: as §1

MAPK8 (JNK1) = MAPK8 (JNK1) (Homo sapiens, UniProt P45983)
Procedure: as §1

MAPKAPK5 (PRAK) = MAPKAPK5 (PRAK) (Homo sapiens, UniProt Q8IW41)
Procedure: as §1

NTRK1 (TRKA) = NTRK1 (TRKA) (Homo sapiens, UniProt P04629)
Procedure: as §1

PAK1 = PAK1 (Homo sapiens, UniProt Q13153)
Procedure: as §1

PAK2 (PAK65) = PAK2 (PAK65) (Homo sapiens, UniProt Q13177)
Procedure: as §1

PDGFRB (PDGFR beta) = PDGFRB (PDGFR beta) (Homo sapiens, UniProt P09619)
Procedure: as §1

PI4KB (PI4K beta) = PI4KB (PI4K beta) (Homo sapiens, UniProt Q9UBF8)
Procedure: as §1

[2] = target: PIK3CA/PIK3R1 (p110 alpha/p85 alpha) (Homo sapiens, UniProt P42336)
Procedure: as §1

PRKCE (PKC epsilon) = PRKCE (PKC epsilon) (Homo sapiens, UniProt Q02156)
Procedure: as §1

PRKCQ (PKC theta) = PRKCQ (PKC theta) (Homo sapiens, UniProt Q04759)
Procedure: as §1

RAF1 (cRAF) Y340D Y341D = RAF1 (cRAF) Y340D Y341D (Homo sapiens, UniProt P04049, Y340D/Y341D)
Procedure: as §1

ROS1 = ROS1 (Homo sapiens, UniProt P08922)
Procedure: as §1

SGK (SGK1) = SGK (SGK1) (Homo sapiens, UniProt O00141)
Procedure: as §1

SRPK1 = SRPK1 (Homo sapiens, UniProt Q96SB4)
Procedure: as §1

ULK2 = ULK2 (Homo sapiens, UniProt Q8IYT8)
Procedure: as §1

Chain of PI4KB (PI4K beta) (Q9UBF8 whole entry): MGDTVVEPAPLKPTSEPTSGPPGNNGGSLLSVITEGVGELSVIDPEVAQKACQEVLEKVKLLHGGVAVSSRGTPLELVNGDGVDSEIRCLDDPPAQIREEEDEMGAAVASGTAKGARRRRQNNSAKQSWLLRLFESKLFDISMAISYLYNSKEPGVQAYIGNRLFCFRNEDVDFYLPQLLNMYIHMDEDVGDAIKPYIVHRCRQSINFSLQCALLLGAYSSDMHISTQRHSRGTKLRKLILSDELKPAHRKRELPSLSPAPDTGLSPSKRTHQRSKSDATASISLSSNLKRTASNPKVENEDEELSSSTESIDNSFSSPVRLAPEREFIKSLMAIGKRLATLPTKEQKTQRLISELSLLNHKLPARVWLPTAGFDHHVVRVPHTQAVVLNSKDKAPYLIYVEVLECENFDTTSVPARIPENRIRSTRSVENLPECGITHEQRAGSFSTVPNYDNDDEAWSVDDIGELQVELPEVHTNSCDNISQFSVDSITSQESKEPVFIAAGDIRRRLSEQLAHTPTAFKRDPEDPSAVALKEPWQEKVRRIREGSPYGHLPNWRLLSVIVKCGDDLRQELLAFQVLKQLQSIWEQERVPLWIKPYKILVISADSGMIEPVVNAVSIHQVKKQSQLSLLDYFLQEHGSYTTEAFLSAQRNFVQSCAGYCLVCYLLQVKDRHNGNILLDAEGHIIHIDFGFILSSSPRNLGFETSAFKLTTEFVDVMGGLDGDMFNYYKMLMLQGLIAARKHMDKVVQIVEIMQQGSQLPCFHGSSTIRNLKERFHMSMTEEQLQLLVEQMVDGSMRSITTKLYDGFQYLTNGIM
Chain of SGK (SGK1) (O00141 whole entry): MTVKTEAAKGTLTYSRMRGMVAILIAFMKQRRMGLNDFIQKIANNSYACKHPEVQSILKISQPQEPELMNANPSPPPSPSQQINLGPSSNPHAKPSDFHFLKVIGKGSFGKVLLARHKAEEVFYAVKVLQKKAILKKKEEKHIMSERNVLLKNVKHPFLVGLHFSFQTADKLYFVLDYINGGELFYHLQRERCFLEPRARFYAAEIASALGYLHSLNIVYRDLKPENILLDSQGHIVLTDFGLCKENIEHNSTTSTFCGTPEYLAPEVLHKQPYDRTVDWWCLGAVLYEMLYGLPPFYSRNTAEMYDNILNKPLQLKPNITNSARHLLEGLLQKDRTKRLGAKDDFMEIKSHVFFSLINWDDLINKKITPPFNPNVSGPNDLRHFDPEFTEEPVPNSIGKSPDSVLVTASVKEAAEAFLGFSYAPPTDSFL
Chain of RAF1 (cRAF) Y340D Y341D (P04049 whole entry Y340D/Y341D): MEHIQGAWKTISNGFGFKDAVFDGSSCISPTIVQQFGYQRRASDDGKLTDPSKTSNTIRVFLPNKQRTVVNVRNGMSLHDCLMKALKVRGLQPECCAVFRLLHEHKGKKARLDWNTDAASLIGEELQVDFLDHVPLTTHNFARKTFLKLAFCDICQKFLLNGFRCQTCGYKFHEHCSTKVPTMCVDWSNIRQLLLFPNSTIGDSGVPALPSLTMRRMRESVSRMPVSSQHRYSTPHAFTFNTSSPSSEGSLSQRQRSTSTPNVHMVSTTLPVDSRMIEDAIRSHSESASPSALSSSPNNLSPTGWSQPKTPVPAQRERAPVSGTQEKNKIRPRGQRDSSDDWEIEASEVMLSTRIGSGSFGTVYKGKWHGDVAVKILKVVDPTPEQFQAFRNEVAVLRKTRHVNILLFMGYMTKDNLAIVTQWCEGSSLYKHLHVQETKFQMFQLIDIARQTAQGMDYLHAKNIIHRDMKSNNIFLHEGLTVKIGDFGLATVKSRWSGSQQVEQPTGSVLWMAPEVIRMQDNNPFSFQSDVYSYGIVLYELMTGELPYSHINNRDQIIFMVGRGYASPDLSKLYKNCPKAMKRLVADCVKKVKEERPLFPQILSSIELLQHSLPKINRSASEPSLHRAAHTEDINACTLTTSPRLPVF
Chain of PDGFRB (PDGFR beta) (P09619 whole entry): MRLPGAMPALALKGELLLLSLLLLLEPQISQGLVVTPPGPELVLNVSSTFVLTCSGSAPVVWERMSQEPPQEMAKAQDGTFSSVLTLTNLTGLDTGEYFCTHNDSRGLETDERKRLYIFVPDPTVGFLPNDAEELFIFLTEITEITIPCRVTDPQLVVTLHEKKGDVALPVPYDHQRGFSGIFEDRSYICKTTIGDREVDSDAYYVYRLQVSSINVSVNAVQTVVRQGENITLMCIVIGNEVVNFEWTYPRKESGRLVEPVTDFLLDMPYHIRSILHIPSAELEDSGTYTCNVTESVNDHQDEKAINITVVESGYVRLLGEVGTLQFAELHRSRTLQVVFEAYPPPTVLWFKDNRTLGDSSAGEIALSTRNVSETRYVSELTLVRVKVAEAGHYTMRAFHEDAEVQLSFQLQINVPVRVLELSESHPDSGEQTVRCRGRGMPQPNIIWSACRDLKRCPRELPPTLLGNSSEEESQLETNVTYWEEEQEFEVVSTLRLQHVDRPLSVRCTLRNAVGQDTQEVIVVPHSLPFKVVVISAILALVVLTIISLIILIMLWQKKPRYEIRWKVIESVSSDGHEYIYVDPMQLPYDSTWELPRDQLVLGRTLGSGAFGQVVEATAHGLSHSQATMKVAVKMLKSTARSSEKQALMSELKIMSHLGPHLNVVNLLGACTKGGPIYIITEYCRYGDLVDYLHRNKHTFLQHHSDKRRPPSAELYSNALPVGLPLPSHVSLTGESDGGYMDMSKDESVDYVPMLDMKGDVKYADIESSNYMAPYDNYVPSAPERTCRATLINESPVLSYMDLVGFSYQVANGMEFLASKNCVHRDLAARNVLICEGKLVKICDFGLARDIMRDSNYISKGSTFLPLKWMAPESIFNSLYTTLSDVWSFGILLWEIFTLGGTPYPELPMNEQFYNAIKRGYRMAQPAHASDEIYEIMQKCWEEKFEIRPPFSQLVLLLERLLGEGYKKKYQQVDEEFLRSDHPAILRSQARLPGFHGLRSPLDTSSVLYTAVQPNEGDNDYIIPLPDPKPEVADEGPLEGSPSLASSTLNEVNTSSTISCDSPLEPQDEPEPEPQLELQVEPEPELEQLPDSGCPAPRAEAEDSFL
Chain of ULK2 (Q8IYT8 whole entry): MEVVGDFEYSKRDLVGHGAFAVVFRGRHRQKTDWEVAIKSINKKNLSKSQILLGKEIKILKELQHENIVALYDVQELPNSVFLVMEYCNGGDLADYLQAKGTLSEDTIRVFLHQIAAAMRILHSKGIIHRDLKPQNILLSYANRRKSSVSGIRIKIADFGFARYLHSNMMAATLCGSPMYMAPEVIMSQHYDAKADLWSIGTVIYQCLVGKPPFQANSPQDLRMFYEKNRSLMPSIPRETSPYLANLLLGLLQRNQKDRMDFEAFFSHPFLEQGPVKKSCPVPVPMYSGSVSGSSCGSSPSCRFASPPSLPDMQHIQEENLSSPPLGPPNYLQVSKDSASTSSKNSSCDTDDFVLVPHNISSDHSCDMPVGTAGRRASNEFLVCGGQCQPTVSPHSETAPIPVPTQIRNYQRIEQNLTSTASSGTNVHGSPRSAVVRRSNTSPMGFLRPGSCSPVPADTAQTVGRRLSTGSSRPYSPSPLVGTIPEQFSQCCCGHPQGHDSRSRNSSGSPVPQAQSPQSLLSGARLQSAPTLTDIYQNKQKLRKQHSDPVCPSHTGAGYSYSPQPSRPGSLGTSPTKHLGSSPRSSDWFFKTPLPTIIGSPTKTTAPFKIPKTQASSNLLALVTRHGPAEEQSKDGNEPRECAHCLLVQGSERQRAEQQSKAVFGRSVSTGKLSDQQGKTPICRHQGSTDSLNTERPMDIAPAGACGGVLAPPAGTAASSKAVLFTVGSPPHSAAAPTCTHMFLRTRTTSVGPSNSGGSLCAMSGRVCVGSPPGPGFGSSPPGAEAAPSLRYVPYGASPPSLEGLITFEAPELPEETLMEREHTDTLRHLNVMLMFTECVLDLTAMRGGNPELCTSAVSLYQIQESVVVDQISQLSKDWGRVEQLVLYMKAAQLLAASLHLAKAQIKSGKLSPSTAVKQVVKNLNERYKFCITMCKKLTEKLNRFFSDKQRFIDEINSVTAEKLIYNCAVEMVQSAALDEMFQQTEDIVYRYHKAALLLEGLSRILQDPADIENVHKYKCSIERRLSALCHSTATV
Chain of PRKCQ (PKC theta) (Q04759 whole entry): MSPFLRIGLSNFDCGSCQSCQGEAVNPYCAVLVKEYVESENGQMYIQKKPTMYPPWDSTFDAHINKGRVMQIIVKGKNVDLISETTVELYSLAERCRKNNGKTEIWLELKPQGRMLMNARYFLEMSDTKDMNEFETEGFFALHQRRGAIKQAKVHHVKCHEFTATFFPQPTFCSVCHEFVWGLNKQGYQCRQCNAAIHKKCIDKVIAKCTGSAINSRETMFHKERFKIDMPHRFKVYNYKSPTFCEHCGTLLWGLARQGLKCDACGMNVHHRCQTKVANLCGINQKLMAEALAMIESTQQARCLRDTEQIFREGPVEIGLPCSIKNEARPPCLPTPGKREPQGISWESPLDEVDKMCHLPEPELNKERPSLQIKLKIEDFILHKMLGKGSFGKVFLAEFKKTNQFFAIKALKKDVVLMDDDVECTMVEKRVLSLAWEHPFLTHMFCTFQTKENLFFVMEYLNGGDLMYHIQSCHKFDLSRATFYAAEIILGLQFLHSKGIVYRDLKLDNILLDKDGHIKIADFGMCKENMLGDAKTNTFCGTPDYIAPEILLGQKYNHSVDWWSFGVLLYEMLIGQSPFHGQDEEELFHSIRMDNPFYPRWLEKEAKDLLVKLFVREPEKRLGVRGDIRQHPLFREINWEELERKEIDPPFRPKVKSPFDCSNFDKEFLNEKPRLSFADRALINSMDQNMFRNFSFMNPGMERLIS

C=CCNc1ncnc2ccc(Br)cc12 [SMER28]
inhibition at 10 µM (ACVR1B (ALK4)): -19% | inhibition at 10 µM (AXL): 17% | inhibition at 10 µM (BRAF): 13% | inhibition at 10 µM (CDK1/cyclin B): 22% | inhibition at 10 µM (DDR2): 0% | inhibition at 10 µM (DNA-PK): 37% | inhibition at 10 µM (FRAP1 (mTOR)): -7% | inhibition at 10 µM (FYN): 9% | inhibition at 10 µM (MAP2K1 (MEK1)): 3% | inhibition at 10 µM [1]: 34% | inhibition at 10 µM (MAPK8 (JNK1)): -2% | inhibition at 10 µM (MAPKAPK5 (PRAK)): 8% | inhibition at 10 µM (NTRK1 (TRKA)): 33% | inhibition at 10 µM (PAK1): 0% | inhibition at 10 µM (PAK2 (PAK65)): 9% | inhibition at 10 µM (PDGFRB (PDGFR beta)): 8% | inhibition at 10 µM (PI4KB (PI4K beta)): 66% | inhibition at 10 µM [2]: 78% | inhibition at 10 µM (PRKCE (PKC epsilon)): 18% | inhibition at 10 µM (PRKCQ (PKC theta)): 0% | inhibition at 10 µM (RAF1 (cRAF) Y340D Y341D): 13% | inhibition at 10 µM (ROS1): 26% | inhibition at 10 µM (SGK (SGK1)): 15% | inhibition at 10 µM (SRPK1): 5% | inhibition at 10 µM (ULK2): 3%
